Our source for the EC50, IC50 and AC50 values is ChEMBL document CHEMBL1201862, “PubChem BioAssay data set” (2004).

Molecules are shown by their SMILES. Active and inactive are the calls of the source.

The nature of data set [1]: Trypanosoma cruzi growth suppression in host cells – NIH3T3 host cells, beta-gal luminescence, confirmation (AID 2044).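 Further: intracellular parasites grown in NIH/3T3 mouse fibroblasts as host cells; luminescent beta-galactosidase reporter signal from transgenic T. cruzi replicating inside host cells; inhibitors lower the luminescence signal.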 It counts as functional, cell-based.
Data set [2] can be described thus: NIH3T3 cell viability loss – ATP luminescence, mouse fibroblasts, counter-screen, dose response (AID 2010).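 Further: cells exposed to compound for about 90 hours before reading.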 It counts as functional, cell-based. (In general: Counterscreens check selectivity or assay interference.)
The next data set relates to H9c2. The experiment in a line: cells. It counts as functional, cell-based. The settings on record: Rattus norvegicus, H9c2, Myocardium.
The target of another data set is T1, Cytochrome P450 1A2 (Homo sapiens, UniProt P05177).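 Further: PubChem cytochrome P450 panel assay, CYP1A2 panel member.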
T1 sequence (P05177 whole entry): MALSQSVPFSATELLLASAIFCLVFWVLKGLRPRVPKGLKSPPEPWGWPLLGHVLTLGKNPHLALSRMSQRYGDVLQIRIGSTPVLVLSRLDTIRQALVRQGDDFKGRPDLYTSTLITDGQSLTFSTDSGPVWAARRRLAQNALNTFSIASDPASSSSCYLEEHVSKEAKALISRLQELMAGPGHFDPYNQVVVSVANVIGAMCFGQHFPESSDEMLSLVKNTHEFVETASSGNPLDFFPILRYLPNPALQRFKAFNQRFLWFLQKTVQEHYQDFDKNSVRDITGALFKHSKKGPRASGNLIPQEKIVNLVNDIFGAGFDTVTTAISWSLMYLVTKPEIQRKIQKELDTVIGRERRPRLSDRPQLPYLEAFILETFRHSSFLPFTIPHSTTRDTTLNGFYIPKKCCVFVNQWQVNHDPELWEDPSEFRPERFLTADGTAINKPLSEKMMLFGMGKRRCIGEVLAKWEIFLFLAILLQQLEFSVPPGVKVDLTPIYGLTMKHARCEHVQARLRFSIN

A further data set concerns the target Cytochrome P450 2C19 (Homo sapiens, UniProt P33261). The experiment in a line: Cytochrome panel assay with activity outcomes. Panel member name: p450-cyp2c19 Compounds with AC50 equal or less than 10 uM are considered active. It counts as functional.
For another data set, the target named is Cytochrome P450 2C9 (Homo sapiens, UniProt P11712).
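Wherever IC50 is given: confirmatory concentration-response retest of ultra-high-throughput screening hits for modulation of myocardial damage; cell death induced by hydrogen peroxide oxidative stress; compound pretreatment for 60 min then peroxide exposure for 2 h; potency is for protecting the cells against peroxide damage rather than for killing them.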

Cytochrome P450 2C19, sequence (P33261 whole entry): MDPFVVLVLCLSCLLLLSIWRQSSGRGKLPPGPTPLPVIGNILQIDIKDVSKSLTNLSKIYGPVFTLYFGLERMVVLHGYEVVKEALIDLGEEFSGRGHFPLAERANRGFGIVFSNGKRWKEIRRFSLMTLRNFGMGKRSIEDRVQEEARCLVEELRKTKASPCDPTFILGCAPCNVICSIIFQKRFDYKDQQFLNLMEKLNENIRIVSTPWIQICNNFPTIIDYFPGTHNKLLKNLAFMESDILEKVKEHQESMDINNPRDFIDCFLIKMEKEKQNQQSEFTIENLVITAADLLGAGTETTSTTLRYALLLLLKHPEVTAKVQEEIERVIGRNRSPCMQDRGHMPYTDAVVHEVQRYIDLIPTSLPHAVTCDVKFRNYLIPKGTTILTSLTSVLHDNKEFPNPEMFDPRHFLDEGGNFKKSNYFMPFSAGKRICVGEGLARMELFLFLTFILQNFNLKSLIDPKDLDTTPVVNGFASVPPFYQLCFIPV
Cytochrome P450 2C9, sequence (P11712 whole entry): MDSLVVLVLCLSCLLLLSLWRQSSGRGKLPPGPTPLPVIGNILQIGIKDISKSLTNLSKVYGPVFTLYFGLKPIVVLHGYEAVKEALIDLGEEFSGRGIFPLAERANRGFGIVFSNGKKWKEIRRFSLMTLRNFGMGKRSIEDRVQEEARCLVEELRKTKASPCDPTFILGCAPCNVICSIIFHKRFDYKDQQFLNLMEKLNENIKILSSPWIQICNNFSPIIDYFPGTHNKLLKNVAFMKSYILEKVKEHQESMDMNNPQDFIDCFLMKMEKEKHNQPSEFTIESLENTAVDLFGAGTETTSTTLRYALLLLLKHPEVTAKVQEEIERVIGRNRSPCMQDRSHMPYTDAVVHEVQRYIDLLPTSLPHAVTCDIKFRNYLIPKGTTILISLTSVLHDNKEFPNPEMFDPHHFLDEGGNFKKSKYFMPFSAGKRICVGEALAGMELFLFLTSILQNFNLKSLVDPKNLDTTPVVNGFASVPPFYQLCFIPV

A word on the EC50: it is the midpoint of the concentration-response curve. With `CCN(C(=O)c1cc2c(O)nc3ccc(C)cc3c2s1)c1ccccc1C`, the EC50 in data set [1] was 0.857 µM (active); in data set [2], > 60 µM (not active). `COc1ccc(-c2cc(C3CCN(Cc4ccc([N+](=O)[O-])cc4)CC3)[nH]n2)cc1`: the EC50 was 1.1 µM (active) in data set [1] and > 60 µM (not active) in data set [2]. The IC50 is the concentration that inhibits the measured activity by half. With `COc1ccc(-c2csc(NC(=O)CCCc3nc(O)c4ccccc4n3)n2)cc1OC`, the IC50 in the data set on H9c2 was > 79 µM (inactive). As usually defined, the AC50 is the midpoint of the concentration-response curve, whichever way the signal moves. On to `COC(=O)[C@@]1(Cc2ccc(F)cc2)[C@H]2c3cc(C(=O)N4CCCC4)n(CCc4ccc(O)c(O)c4)c3C[C@H]2CN1C(=O)c1ccccc1`, for which the AC50 on Cytochrome P450 1A2 was 20 µM (inconclusive). `CCCCOc1ccc(-c2nnn(CC(=O)c3c[nH]c4ccccc34)n2)cc1`: on Cytochrome P450 2C19 (read-out: AC50), the AC50 was 25.1 µM (inconclusive). As to `CCCC(=O)Nc1cccc(Oc2nc(C)cc(C)c2C#N)c1`, the AC50 on Cytochrome P450 2C9 was 10 µM (inconclusive). Regarding `CC(=O)Nc1ccc(-c2cc(-c3ccc(NC(C)=O)cc3)nc(-c3ccccc3)n2)cc1`, the AC50 at Cytochrome P450 2C19 (read-out: AC50) was 1.78 µM (inconclusive). In the case of `CCOC(=O)c1cnc2ccc(OCC)cc2c1N1CCN(c2ccccc2OC)CC1`, the EC50 in data set [1] is 1.19 µM (active); in data set [2], > 60 µM (not active).

For the compound `O=C(c1c[nH]c(=O)n(-c2ccccc2)c1=O)N1CCc2ccccc21`, the AC50 at Cytochrome P450 2C19 (read-out: AC50) was 6.31 µM (inconclusive); on Cytochrome P450 1A2 it was 0.0794 µM (inconclusive).

For `NS(=O)(=O)c1ccc(NC(=O)Nc2cccc3ccccc23)cc1`, on Cytochrome P450 1A2, the AC50 was 1 µM (inconclusive).

On to `O=c1oc2c(CN3CCOCC3)c(O)ccc2c2ccccc12`, for which the AC50 at Cytochrome P450 2C9 was 20 µM (inconclusive). As for `COc1ccc(CNn2c(-c3cccs3)nc3ccccc3c2=O)cc1OC`, the IC50 in the data set with H9c2 was 8.92 µM (active). Consider `COC(=O)c1nnn(Cc2ccccc2)c1N`, for which, at Cytochrome P450 1A2, the half-maximal activity concentration (AC50) is 0.126 µM (inconclusive).

As for `O=C(C1=C[C@H](C2CC2)C[C@H](OCc2ccc(CO)cc2)O1)N1CCN(Cc2ccccc2)CC1`, the EC50 in data set [1] is 0.541 µM (active); in data set [2] it was > 60 µM (not active).

Regarding `N#Cc1cc2ccccc2nc1SCC(=O)Nc1ccc(S(=O)(=O)N2CCCC2)cc1`, the EC50 is 2.83 µM (active) in data set [1] and 9.37 µM (active) in data set [2]. In the case of `O=C(Nc1ccccc1C(=O)O)c1ccc2ccccc2n1`, the AC50 on Cytochrome P450 1A2 is 5.01 µM (inconclusive). As to `O=C1Nc2ccccc2Oc2cc([N+](=O)[O-])ccc21`, the EC50 in data set [1] is 1.46 µM (active); in data set [2] it was 9.78 µM (active). Take `CCNc1ncc2nc(-c3ccc(F)cc3)c(=O)n(Cc3ccc(F)cc3)c2n1`: on Cytochrome P450 1A2, the AC50 was 20 µM (inconclusive). On to `CC(=O)O/C(=C1/C[C@H]2[C@@H]3CC=C4C[C@@H](OC(C)=O)CC[C@]4(C)[C@@H]3CC[C@]2(C)C1=O)C(F)(F)F`, for which the values for the AC50 at Cytochrome P450 2C9 and at Cytochrome P450 1A2 were 3.16 µM (inconclusive) and 5.01 µM (inconclusive), respectively. With `COc1cc(CNC(C)(C)CO)ccc1OCC(=O)Nc1ccc(Br)cc1`, on Cytochrome P450 2C9, the AC50 was 39.8 µM (inconclusive). Take `Cc1ccc(-c2nnc(Nc3ccc(CC(N)=O)cc3)c3ccccc23)cc1`: the EC50 is 0.208 µM (active) in data set [1] and > 60 µM (not active) in data set [2].

As for `O=C(c1ccc(-c2ccccc2)cc1)C1CCCN(Cc2ccncc2)C1` (centres undefined), the EC50 in data set [1] was 1.47 µM (active); in data set [2], > 60 µM (not active).

In the case of `COc1ccc(-c2cc(-c3nnc(COC(=O)C4CC4C)o3)c3ccccc3n2)cc1OC` (centres undefined), the IC50 in the data set on H9c2 was 8.29 µM (active). Take `CCOC(=O)Cc1csc(SCc2cc(=O)oc3cc(O)ccc23)n1`: the IC50 in the data set with H9c2 is > 79 µM (inactive). With `CN(C)CCCNC(=O)c1ccc(Cl)c(S(=O)(=O)N(C)c2ccccc2)c1`, the EC50 in data set [1] is 0.524 µM (active); in data set [2] it was > 60 µM (not active). Regarding `COC(=O)c1c(-c2ccccc2)csc1NC(=O)CSc1ncnc2sc(C)c(C)c12`, the AC50 at Cytochrome P450 2C19 (read-out: AC50) is 1 µM (inconclusive). As for `O=C(CSc1nc(O)c2ccccc2n1)c1ccccc1`, the IC50 in the data set on H9c2 was > 79 µM (inactive). Regarding `CN(C)CCCN/C=C1/C(=O)N(Cc2ccc3c(c2)OCO3)C(=O)c2ccccc21`, the EC50 in data set [1] was < 0.1 µM (active); in data set [2], 10.1 µM (active).

As for `OC(COc1ccc(OCC(O)CN2CCN(Cc3ccccc3)CC2)cc1)CN1CCN(Cc2ccccc2)CC1` (centres undefined), the concentration for a half-maximal effect (EC50) in data set [1] is 0.789 µM (active); in data set [2], > 60 µM (not active). In the case of `CCOC(=O)CSc1nc(O)c2c(C)c(C)sc2n1`, the half-maximal inhibitory concentration (IC50) in the data set on H9c2 is 10.2 µM (active). As for `CCN1CCN(Cc2cccc(Oc3ccccc3)c2)CC1`, the EC50 is 1.44 µM (active) in data set [1] and > 30 µM (not active) in data set [2]. As to `CC(=O)c1ccccc1OCCCN1CCCCC1`, the IC50 with H9c2 is > 79 µM (inactive). Take `COc1ccc(-n2nc(C(=O)NCC(=O)Nc3cc(OC)c(OC)c(OC)c3)c3ccccc3c2=O)cc1Cl`: the IC50 in the data set on H9c2 is > 79 µM (inactive). On to `O=C(CN1C(=O)COc2ccccc21)N(Cc1cccnc1)Cc1ccccc1F`, for which the values for the EC50 in data set [1] and in data set [2] were 0.26 µM (active) and > 60 µM (not active), respectively. For `CC(=O)NCCNc1cc(-c2ccccc2C(F)(F)F)ncn1`, the AC50 at Cytochrome P450 1A2 is 25.1 µM (inconclusive). As to `Cn1cc(-c2nc3cncnc3n(CCN)c2=O)c2ccccc21`, the values for the AC50 on Cytochrome P450 2C9 and at Cytochrome P450 2C19 (read-out: AC50) were 15.8 µM (inconclusive) and 31.6 µM (inconclusive), respectively. With `COC(=O)c1ccc(C#CC(NP(=O)(c2ccccc2)c2ccccc2)c2ccccc2)cc1` (centres undefined), the AC50 on Cytochrome P450 2C19 (read-out: AC50) and on Cytochrome P450 1A2 was 20 µM (inconclusive) throughout.

`COc1ccccc1NC(=O)CSc1nc2ccccc2cc1Cc1ccccc1`: the AC50 is 0.0631 µM (inconclusive) on Cytochrome P450 2C9 and 3.55 µM (inconclusive) at Cytochrome P450 1A2.

Regarding `COc1cccc(C(CC(=O)Nc2cccc3ccccc23)NC(=O)c2ccccc2)c1` (centres undefined), the AC50 at Cytochrome P450 2C19 (read-out: AC50) is 0.631 µM (inconclusive). `COC(=O)Cn1nc(-c2ccccc2)n(-c2ccccc2)c1=S`: at Cytochrome P450 2C19 (read-out: AC50), the concentration at half-maximal activity (AC50) is 20 µM (inconclusive). Same read-out and setting: for `CCc1ccc(C(=O)COC(=O)C(Cc2ccccc2)NC(=O)C2CCC(C)CC2)cc1` (centres undefined) the value was 0.0708 µM (inconclusive). `COc1ccccc1NC(=O)c1ccc(NC(=O)Cc2nnc(O)c3ccccc23)cc1`: in the data set on H9c2, the IC50 was > 79 µM (inactive).

As for `COC(=O)c1sccc1NC(=O)CN(C)NS(=O)(=O)c1ccc(F)cc1`, the AC50 on Cytochrome P450 2C9 was 28.2 µM (inconclusive). Turning to `CC(C)CN(C(=O)c1ccc([N+](=O)[O-])s1)c1c(N)n(Cc2ccccc2)c(=O)[nH]c1=O`, the EC50 was 0.783 µM (active) in data set [1] and > 60 µM (not active) in data set [2]. Consider `CCN(CC)CCN(C(=O)c1ccc2c(c1)OCCO2)c1nc2ccc(C)cc2s1`, for which the EC50 is 0.457 µM (active) in data set [1] and > 60 µM (not active) in data set [2].

Take `CCCCCNc1nc(-c2ccccc2)nc(-n2ccnc2)n1`: the EC50 in data set [1] is 1.55 µM (active); in data set [2] it was > 60 µM (inconclusive).

As to `CC1=C2[C@@H]3OC(=O)[C@@H](C)[C@@H]3CC[C@]2(C)C=CC1=O`, the AC50 at Cytochrome P450 1A2 was 10 µM (inconclusive). As for `N=c1sccn1CC(=O)Nc1cccc(Oc2ccccc2)c1`, the AC50 at Cytochrome P450 2C9 is 20 µM (inconclusive); at Cytochrome P450 1A2, 6.31 µM (inconclusive). Regarding `CN(CC(=O)Nc1ccccc1Cl)C(=O)CCc1nc(O)c2ccccc2n1`, in the data set on H9c2, the IC50 is 23.8 µM (active). In the case of `O=C(NCc1cccnc1)C1COc2ccccc2O1` (centres undefined), the AC50 on Cytochrome P450 2C9 is 20 µM (inconclusive).

For the compound `COc1cc(-c2nnc(-c3cc(-c4ccccc4)nc4ccccc34)o2)cc(OC)c1OC`, the IC50 with H9c2 is 10.5 µM (active).

Regarding `CC(=O)Nc1cccc(/C(C)=N/NC(=O)c2cccs2)c1`, the IC50 in the data set with H9c2 was > 79 µM (inactive). Turning to `O=C(CNC(=O)c1cccc(F)c1)N/N=C/c1cc(Br)ccc1OC(=O)/C=C/c1ccco1`, the IC50 in the data set on H9c2 is > 79 µM (inactive).

`Cc1cccc(/N=C/c2c(O)ccc3oc4c(c23)CCCC4)n1`: the IC50 in the data set on H9c2 is > 79 µM (inactive). As for `COc1cc(/C=N\NC(=O)c2cccnc2)ccc1OC(=O)c1ccccc1Cl`, in the data set with H9c2, the IC50 was > 79 µM (inactive).

Take `Cc1[nH]n(-c2ccc(S(=O)(=O)O)cc2)c(=O)c1/N=N\c1ccccc1`: the AC50 result at Cytochrome P450 2C19 is listed as “inconclusive”.

Turning to `O=[N+]([O-])c1ccccc1/C=N/N1CCN(c2ccncc2S(=O)(=O)N2CCCCC2)CC1`, the results for the concentration for a half-maximal effect (EC50) in data set [1] and in data set [2] were 0.55 µM (active) and > 60 µM (not active), respectively. Consider `COc1ccc(CNc2ncnc3ccc(-c4ccccc4C#N)cc23)c(OC)c1`, for which the concentration at half-maximal activity (AC50) on Cytochrome P450 2C9 is 0.794 µM (inconclusive).

As for `CN(C)CCC=C1c2ccccc2CCc2ccccc21` [AMITRIPTYLINE], the AC50 on Cytochrome P450 1A2 is 15.8 µM (inconclusive). Regarding `O=C(Cn1ccnc1[N+](=O)[O-])NCCO` [ETANIDAZOLE], at Cytochrome P450 2C19, the concentration at half-maximal activity (AC50) result is “inconclusive”. As for `CS(=O)(=O)Nc1ccc([N+](=O)[O-])cc1Oc1ccccc1` [NIMESULIDE], the AC50 on Cytochrome P450 1A2 was 12.6 µM (inconclusive).
